This note sets out measurements from PubChem BioAssay (NCI).

Among the test systems are COLO 205 colon; MOLT-4 leukemia; OVCAR-3 ovarian; MCF7 breast; HS 578T breast; NCI-H522 lung; SF-295 CNS; NCI/ADR-RES ovarian; HL-60(TB) leukemia; CAKI-1 renal; K-562 leukemia.
Experiment in all cases: NCI-60 cell line screen, 48 h

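Interpolation was linear, between the two tested concentrations surrounding the appropriate level; five concentrations were tested over 48 hours in 96-well plates. The concentration for full growth arrest is given as TGI.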

In the case of `Cc1c(OCc2ccccc2)c(=O)ccn1CCc1c[nH]c2ccccc12`, the TGI was 32.1 µM in the assay with COLO 205 colon; 31.9 µM in the assay with MOLT-4 leukemia; 51.4 µM with OVCAR-3 ovarian; 42.9 µM with MCF7 breast; more than 100 µM in the assay on HS 578T breast; 69.4 µM in the assay with NCI-H522 lung. The TGI with SF-295 CNS and with NCI/ADR-RES ovarian was more than 100 µM each time.
Take `CCCC1C(=O)Nc2cccc3ncn(c23)C1=O` (centres undefined): the TGI with COLO 205 colon, in the assay with HL-60(TB) leukemia, in the assay on MOLT-4 leukemia, in the assay with OVCAR-3 ovarian, in the assay on CAKI-1 renal and in the assay with MCF7 breast was more than 100 µM throughout. Moreover, the TGI in the assay with HS 578T breast, with SF-295 CNS, in the assay with K-562 leukemia and in the assay on NCI/ADR-RES ovarian was more than 100 µM throughout.
Regarding `CC12CCCCC1=[N+]([O-])C(C)(C)N2O` (centres undefined), the TGI in the assay on COLO 205 colon, with OVCAR-3 ovarian, in the assay on CAKI-1 renal, in the assay on MCF7 breast, with HS 578T breast and in the assay with SF-295 CNS was more than 100 µM throughout. For the same molecule, in the assay on NCI/ADR-RES ovarian, the TGI is more than 100 µM.
Consider `CS(=O)(=O)c1nc(-c2cc3c(c(S(C)(=O)=O)n2)CCC3)cc2c1CCCC2`, for which the TGI in the assay with COLO 205 colon is more than 100 µM; in the assay with HL-60(TB) leukemia, more than 100 µM; in the assay on MOLT-4 leukemia, more than 100 µM; in the assay with OVCAR-3 ovarian, more than 100 µM; in the assay on CAKI-1 renal, 38 µM; in the assay with HS 578T breast, 14.1 µM. Further, the TGI is 45.9 µM in the assay on NCI-H522 lung, more than 100 µM with SF-295 CNS, more than 100 µM with K-562 leukemia and more than 100 µM in the assay on NCI/ADR-RES ovarian.
As for `Cc1ccc(N(O)C(C)(C)C)cc1`, the TGI with COLO 205 colon, with HL-60(TB) leukemia, in the assay with MOLT-4 leukemia, with OVCAR-3 ovarian, in the assay on CAKI-1 renal and in the assay with MCF7 breast was more than 100 µM throughout. The TGI in the assay on NCI-H522 lung, in the assay with SF-295 CNS, in the assay with K-562 leukemia and in the assay on NCI/ADR-RES ovarian was more than 100 µM throughout.
`C[S+](C)CC1OC(n2cnc3c(N)ncnc32)C(O)C1O` (centres undefined): the TGI with COLO 205 colon, in the assay on HL-60(TB) leukemia, in the assay with MOLT-4 leukemia, in the assay with OVCAR-3 ovarian, with CAKI-1 renal and in the assay with MCF7 breast was more than 225 µM each time. For the same molecule, the TGI in the assay with NCI-H522 lung, with SF-295 CNS, in the assay on K-562 leukemia and in the assay on NCI/ADR-RES ovarian was more than 225 µM throughout.
For `O=NN(CCF)C(=O)NC1CC2CCC1C2` (centres undefined), the TGI in the assay on COLO 205 colon, in the assay on HL-60(TB) leukemia, in the assay with MOLT-4 leukemia, in the assay with OVCAR-3 ovarian, with CAKI-1 renal and in the assay with MCF7 breast was more than 100 µM each time. Moreover, the TGI in the assay on NCI-H522 lung, in the assay on SF-295 CNS, in the assay with K-562 leukemia and in the assay with NCI/ADR-RES ovarian was more than 100 µM throughout.
`COC(=O)CCc1c(Cc2ccc[nH]2)[nH]c(C(=O)OCc2ccccc2)c1C`: the TGI in the assay on COLO 205 colon was determined as 32.9 µM; in the assay on MOLT-4 leukemia, 52.7 µM; in the assay on OVCAR-3 ovarian it was 31 µM; with CAKI-1 renal it was 64.7 µM; in the assay on MCF7 breast it was 35.7 µM; in the assay on HS 578T breast, 88.5 µM. Also, the TGI was 54.4 µM in the assay with NCI-H522 lung, 53.3 µM in the assay on SF-295 CNS, 58.5 µM in the assay on K-562 leukemia and 52.1 µM with NCI/ADR-RES ovarian.
As for `NC(Cc1c[nH]c2cc([N+](=O)[O-])ccc12)C(=O)O` (centres undefined), the TGI in the assay with COLO 205 colon, with MOLT-4 leukemia, in the assay with OVCAR-3 ovarian, in the assay on CAKI-1 renal, with MCF7 breast and in the assay with HS 578T breast was more than 100 µM in each case. The TGI in the assay on NCI-H522 lung, in the assay with SF-295 CNS, with K-562 leukemia and in the assay on NCI/ADR-RES ovarian was more than 100 µM throughout.
For the molecule `COC(=O)C1=C(O)C(C(=O)OC)[C@]2(O)[C@@H](C(=O)OC)[C@H]1C[C@@H](c1ccccc1)[C@@H]2C(=O)OC` (some centres undefined), the TGI with HL-60(TB) leukemia is more than 100 µM; in the assay on MOLT-4 leukemia, 55.6 µM; in the assay on OVCAR-3 ovarian it was 31.8 µM; with MCF7 breast it was more than 100 µM; in the assay with HS 578T breast, 76.8 µM; with NCI-H522 lung it was 20.6 µM. Further, the TGI in the assay on K-562 leukemia was 33.4 µM.
Take `Oc1ccccc1C1C=C(c2ccccc2)NC(N2CCCCC2)=C1c1nc2ccccc2[nH]1` (centres undefined): the TGI with COLO 205 colon is 5.81 µM; in the assay on HL-60(TB) leukemia, 43 µM; in the assay on MOLT-4 leukemia, 57.6 µM; in the assay with OVCAR-3 ovarian, 29.8 µM; in the assay with MCF7 breast, 24.9 µM; in the assay on HS 578T breast, 31 µM. Moreover, the TGI in the assay on NCI-H522 lung was 27.7 µM; in the assay on SF-295 CNS, 29.2 µM; in the assay with K-562 leukemia it was more than 100 µM; with NCI/ADR-RES ovarian, 34 µM.
On to `Cc1nnc2n(c1=O)CCN2C`, for which the TGI in the assay on COLO 205 colon, in the assay on HL-60(TB) leukemia, in the assay with MOLT-4 leukemia, in the assay with OVCAR-3 ovarian, in the assay with MCF7 breast and in the assay on HS 578T breast was more than 100 µM in each case. Moreover, the TGI in the assay on SF-295 CNS and with K-562 leukemia was more than 100 µM each time.
In the case of `CCOC(=O)c1c(C)nc2c(c1-c1cn(-c3ccccc3)nc1-c1ccccc1)C(=O)c1ccccc1-2`, the TGI in the assay on COLO 205 colon, in the assay on MOLT-4 leukemia, with OVCAR-3 ovarian, in the assay on CAKI-1 renal, in the assay on HS 578T breast and in the assay with NCI-H522 lung was more than 100 µM each time. The TGI in the assay on SF-295 CNS, in the assay on K-562 leukemia and with NCI/ADR-RES ovarian was more than 100 µM each time.
As for `COc1ccc(C2OCCN2C)cc1` (centres undefined), the TGI with COLO 205 colon, in the assay on MOLT-4 leukemia, in the assay with OVCAR-3 ovarian, in the assay with CAKI-1 renal, in the assay with MCF7 breast and with HS 578T breast was more than 100 µM in each case. Further, the TGI in the assay with NCI-H522 lung, with SF-295 CNS, with K-562 leukemia and with NCI/ADR-RES ovarian was more than 100 µM each time.
